From ChEMBL document CHEMBL1123642, “Design and synthesis of phosphonate inhibitors of glutamine synthetase” (J Med Chem, 1987)

Legend:
[1] = tested on: glutamine synthetase (Pisum sativum); test: Tested for the inhibition of Glutamine synthetase (Pea seed) activity using biosynthetic assay [[…] (pH 7), 5 mM MgCl2] at a concentration of 0.1 mM; conditions: Lathyrus oleraceus
[2] = tested on: glutamine synthetase (Pisum sativum); test: Tested for the inhibition of Glutamine synthetase (Pea seed) activity using biosynthetic assay [[…] (pH 7), 5 mM MgCl2] at a concentration of 1.0 mM; conditions: Lathyrus oleraceus
[3] = tested on: glutamine synthetase (Pisum sativum); test: Tested for the inhibition of Glutamine synthetase (Pea seed) activity using biosynthetic assay [[…] (pH 7), 5 mM MgCl2] at a concentration of 10.0 mM; conditions: Lathyrus oleraceus
[4] = tested on: glutamine synthetase (Ovis aries); test: Tested for the inhibition of Glutamine synthetase (Ovine brain) activity using biosynthetic assay [[…] (pH 7), 5 mM MgCl2] at a concentration of 0.1 mM
[5] = tested on: glutamine synthetase (Ovis aries); test: Tested for the inhibition of Glutamine synthetase (Ovine brain) activity using biosynthetic assay [[…] (pH 7), 5 mM MgCl2] at a concentration of 1.0 mM
[6] = tested on: glutamine synthetase (Ovis aries); test: Tested for the inhibition of Glutamine synthetase (Ovine brain) activity using biosynthetic assay [[…] (pH 7), 5 mM MgCl2] at a concentration of 10.0 mM
[7] = target: glutamine synthetase (Escherichia coli) (UniProt P0A9C5); test: Tested for the inhibition of Glutamine synthetase (Escherichia coli) activity using biosynthetic assay [[…] (pH 7), 5 mM MgCl2] at a concentration of 0.1 mM
[8] = target: glutamine synthetase (Escherichia coli) (UniProt P0A9C5); test: Tested for the inhibition of Glutamine synthetase (Escherichia coli) activity using biosynthetic assay [[…] (pH 7), 5 mM MgCl2] at a concentration of 1.0 mM
[9] = target: glutamine synthetase (Escherichia coli) (UniProt P0A9C5); test: Tested for the inhibition of Glutamine synthetase (Escherichia coli) activity using biosynthetic assay [[…] (pH 7), 5 mM MgCl2] at a concentration of 10.0 mM
[10] = tested on: glutamine synthetase (Pisum sativum); test: Tested for the inhibition of Glutamine synthetase (Pea seed) activity using Gamma-glutamyl transferase assay [[…] (pH 7), 5 mM MgCl2] at a concentration of 1.0 mM; conditions: Lathyrus oleraceus
[11] = tested on: glutamine synthetase (Pisum sativum); test: Tested for the inhibition of Glutamine synthetase (Pea seed) activity using Gamma-glutamyl transferase assay [[…] (pH 7), 5 mM MgCl2] at a concentration of 0.1 mM; conditions: Lathyrus oleraceus
[12] = tested on: glutamine synthetase (Pisum sativum); test: Tested for the inhibition of Glutamine synthetase(Pea seed) activity using Gamma-glutamyl transferase assay [[…] (pH 7), 5 mM MgCl2] at a concentration of 10.0 mM; conditions: Lathyrus oleraceus
[13] = tested on: glutamine synthetase (Ovis aries); test: Tested for the inhibition of Glutamine synthetase (Ovine brain) activity using Gamma-glutamyl transferase assay [[…] (pH 7), 5 mM MgCl2] at a concentration of 0.1 mM
[14] = tested on: glutamine synthetase (Ovis aries); test: Tested for the inhibition of Glutamine synthetase (Ovine brain) activity using Gamma-glutamyl transferase assay [[…] (pH 7), 5 mM MgCl2] at a concentration of 1.0 mM
[15] = tested on: glutamine synthetase (Ovis aries); test: Tested for the inhibition of Glutamine synthetase (Ovine brain) activity using Gamma-glutamyl transferase assay [[…] (pH 7), 5 mM MgCl2] at a concentration of 10.0 mM
[16] = target: glutamine synthetase (Escherichia coli) (UniProt P0A9C5); test: Tested for the inhibition of Glutamine synthetase (Escherichia coli) activity using Gamma-glutamyl transferase assay [[…] (pH 7), 5 mM MgCl2] at a concentration of 0.1 mM
[17] = target: glutamine synthetase (Escherichia coli) (UniProt P0A9C5); test: Tested for the inhibition of Glutamine synthetase (Escherichia coli) activity using Gamma-glutamyl transferase assay [[…] (pH 7), 5 mM MgCl2] at a concentration of 1.0 mM
[18] = target: glutamine synthetase (Escherichia coli) (UniProt P0A9C5); test: Tested for the inhibition of Glutamine synthetase (Escherichia coli) activity using Gamma-glutamyl transferase assay [[…] (pH 7), 5 mM MgCl2] at a concentration of 10.0 mM
[19] = tested on: glutamine synthetase (Pisum sativum); test: Tested for the inhibition of Glutamine synthetase (Pea seed) activity using Gamma-glutamyl transferase assay [[…] (pH 7), 5 mM MgCl2] at a concentration of 10.0 mM; conditions: Lathyrus oleraceus
[20] = tested on: glutamine synthetase (Pisum sativum); test: Tested for the inhibition of Glutamine synthetase (Pea seed) activity using biosynthetic assay [[…] (pH 7), 5 mM MgCl2] at a concentration of 0 mM; conditions: Lathyrus oleraceus
[21] = tested on: glutamine synthetase (Ovis aries); test: Tested for the inhibition of Glutamine synthetase (Ovine brain) activity using biosynthetic assay [[…] (pH 7), 5 mM MgCl2] at a concentration of 0 mM
[22] = target: glutamine synthetase (Escherichia coli) (UniProt P0A9C5); test: Tested for the inhibition of Glutamine synthetase (Escherichia coli) activity using biosynthetic assay [[…] (pH 7), 5 mM MgCl2] at a concentration of 0 mM
[23] = tested on: glutamine synthetase (Pisum sativum); test: Tested for the inhibition of Glutamine synthetase (Pea seed) activity using Gamma-glutamyl transferase assay [[…] (pH 7), 5 mM MgCl2] at a concentration of 0 mM; conditions: Lathyrus oleraceus
[24] = tested on: glutamine synthetase (Ovis aries); test: Tested for the inhibition of Glutamine synthetase (Ovine brain) activity using Gamma-glutamyl transferase assay [[…] (pH 7), 5 mM MgCl2] at a concentration of 0 mM
[25] = target: glutamine synthetase (Escherichia coli) (UniProt P0A9C5); test: Tested for the inhibition of Glutamine synthetase (Escherichia coli) activity using Gamma-glutamyl transferase assay [[…] (pH 7), 5 mM MgCl2] at a concentration of 0 mM

Chain of glutamine synthetase (Escherichia coli) (P0A9C5 whole entry, looked up): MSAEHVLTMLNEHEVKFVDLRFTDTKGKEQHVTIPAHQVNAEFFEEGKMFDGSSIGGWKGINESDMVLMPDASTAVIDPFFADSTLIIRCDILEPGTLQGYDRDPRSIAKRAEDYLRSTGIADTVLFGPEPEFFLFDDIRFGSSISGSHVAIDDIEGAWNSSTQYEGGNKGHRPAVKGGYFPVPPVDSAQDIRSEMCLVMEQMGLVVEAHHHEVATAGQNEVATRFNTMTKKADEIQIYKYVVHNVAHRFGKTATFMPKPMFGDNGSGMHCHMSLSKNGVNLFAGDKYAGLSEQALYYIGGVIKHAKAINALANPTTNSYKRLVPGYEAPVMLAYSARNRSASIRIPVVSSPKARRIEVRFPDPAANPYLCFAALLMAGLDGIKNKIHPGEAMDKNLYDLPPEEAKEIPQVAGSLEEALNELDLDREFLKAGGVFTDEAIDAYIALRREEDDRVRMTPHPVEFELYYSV

Relative activity [1]	Relative activity [2]	Relative activity [3]	Relative activity [4]	Relative activity [5]	Relative activity [6]	Relative activity [7]	Relative activity [8]	Relative activity [9]	Relative activity [10]	Relative activity [11]	Relative activity [13]	Relative activity [14]	Relative activity [15]	Relative activity [16]	Relative activity [17]	Relative activity [18]	Relative activity [19]	SMILES	further results
1.1	0.8	0.85	1.2	1	1	1.1	1	1	0.9	0.8	0.95	0.9	0.8	1.1	1.1	1		CC(N)(CCS(=O)(=O)CP(=O)(O)O)C(=O)O (stereo not given)	Relative activity [12]: 0.9
1.1	1.1	0.75	1.2	1.2	1	1.2	1.2	0.95	0.9	0.9	1	1	1.2	1	1	1.5	1	CC(N)(CC[S+]([O-])CP(=O)(O)O)C(=O)O (stereo not given)	
1	1.2	0.5	1	1	1.2	1	1.95	1.25	1	1	1	1	1.1	1.1	1.4	1.5	1	CC(N)(CCSCP(=O)(O)O)C(=O)O (stereo not given)	Relative activity [20]: 1; Relative activity [21]: 1; Relative activity [22]: 1; Relative activity [23]: 1; Relative activity [24]: 1; Relative activity [25]: 1
